Test results reported in patent US20100144626A1, “Treatment of Multi-Drug Resistant Bacterial Infections” (priority 2006, published 2010).
In brackets after ≈: the same amount, converted by molar mass. Entries after “also recorded” stand apart in the source; their conditions may differ. Where two headings read alike, the source gives them in different places.

Tests used:
Format in all cases: cell-based
Gram-negative organisms = assay: Growth inhibition, summary of MIC testing; conditions: summary in words
Procedure: (§1) In example experiments miconazole nitrate, was dissolved in methanol and econazole nitrate and clotrimazole were dissolved in DMSO and methanol respectively. Other solvents that may be used include caster oil, pyridine, DMSO and 0.9% saline. For IV administration agents may be solubilised in polyethoxylated caster oil, or cyclodextrins such as sulfobutylether7-βcyclodextrin or hydroxypropyl-β-cyclodextrin and lactic acid. Minimum inhibitory concentrations (MICs) of a range of clinical and control bacterial organisms were measured according to BSAC (British Society for Antimicrobial Chemotherapy) guidelines, described briefly as follows;
(§2) Stock solutions were prepared at concentrations of 1000 mg/L and 100 mg/L. The appropriate amounts of each stock solution were added to separate Petri dishes give the following final concentrations (after the addition of 20 mL molten agar): 128, 64, 32, 16, 8, 4, 2, 1, 0.5, 0.25, 0.12, 0.06, 0.03, 0.015 mg/L.
(§3) The test organisms were grown overnight in 5 mL IST broth. Using a dilution in 0.9% saline of 1:500 for Gram-negative organisms and 1:100 for Gram-positive organisms, the appropriate agar plates were inoculated using a multipoint inoculator.
(§4) Plates were incubated at 37° C. in air for 18-20 hours.
(§5) The MIC is the minimum amount of an antibiotic at which there is no visible growth of bacteria. Tiny single colonies or faint hazes were not counted as growth.

[1] = system: strains of Staphylococci and Enterococci with reduced susceptibility to vancomycin; assay: Growth inhibition, summary of MIC testing; conditions: summary in words
Procedure: as §1, §2, §3, §4, §5

[2] = system: Pseudomonas aeruginosa NCTC 10662; assay: MIC, agar dilution (BSAC guidelines)
Procedure: as §1
(§6) Preparation of Agar Plates and Broths
(§7) Stock solutions of each agent were prepared using the formula:
(§8) Where P=μg of active compound per mg (μg/mg) • V=volume required (mL) • C=final concentration of solution (mg/L) • W=weight of agent (mg) to be dissolved in volume V (mL)
as §2
(§9) Volumes (20 mL) of cooled molten IST agar (oxoid) was added to each Petri dish and mixed by swirling.
(§10) After drying, the plates were stored at 4° C. and protected from light. Plates were used on the day of preparation.
as §3, §4, §5

[3] = system: Enterococcus faecium (VRE) NCTC 7171; assay: MIC, agar dilution (BSAC guidelines)
Procedure: as §1, §6, §7, §8, §2, §9, §10, §3, §4, §5

[4] = system: VISA, strain USA/VISA 5827; assay: MIC, agar dilution (BSAC guidelines); conditions: Staphylococcus aureus
Procedure: as §1, §6, §7, §8, §2, §9, §10, §3, §4, §5

[5] = system: VISA, strain USA/VISA 5836; assay: MIC, agar dilution (BSAC guidelines); conditions: Staphylococcus aureus
Procedure: as §1, §6, §7, §8, §2, §9, §10, §3, §4, §5

[6] = system: Acinetobacter Baumannii ATCC 19606; assay: MIC, agar dilution (BSAC guidelines)
Procedure: as §1, §6, §7, §8, §2, §9, §10, §3, §4, §5

[7] = system: Enterococcus faecium (VRE) VanR B145344C LFE; assay: MIC, agar dilution (BSAC guidelines); conditions: E. faecium (VRE) VanR B145344C LFE
Procedure: as §1, §6, §7, §8, §2, §9, §10, §3, §4, §5

[8] = system: Enterococcus faecalis (VRE) E8 VanA; assay: MIC, agar dilution (BSAC guidelines); conditions: E. faecalis (VRE) E8 VanA
Procedure: as §1, §6, §7, §8, §2, §9, §10, §3, §4, §5

[9] = system: VISA, strain VISA 3900 UK; assay: MIC, agar dilution (BSAC guidelines); conditions: Staphylococcus aureus
Procedure: as §1, §6, §7, §8, §2, §9, §10, §3, §4, §5

[10] = system: Enterococcus gallinarum (VRE) E1 NCTC 12359 VanC1; assay: MIC, agar dilution (BSAC guidelines)
Procedure: as §1, §6, §7, §8, §2, §9, §10, §3, §4, §5

[11] = system: Escherichia coli NCTC 10418; assay: MIC, agar dilution (BSAC guidelines)
Procedure: as §1, §6, §7, §8, §2, §9, §10, §3, §4, §5

[12] = system: Klebsiella pneumoniae ESBL 700603; assay: MIC, agar dilution (BSAC guidelines)
Procedure: as §1, §6, §7, §8, §2, §9, §10, §3, §4, §5

[13] = system: Staphylococcus epidermidis ATCC 1228; assay: MIC, agar dilution (BSAC guidelines)
Procedure: as §1, §6, §7, §8, §2, §9, §10, §3, §4, §5

[14] = system: Enterococcus faecium (VRE) E19 UAA/522 VanB; assay: MIC, agar dilution (BSAC guidelines); conditions: E. faecium (VRE) E19 UAA/522 VanB
Procedure: as §1, §6, §7, §8, §2, §9, §10, §3, §4, §5

[15] = system: Enterococcus faecium (VRE) E15 VanA ATCC 4147; assay: MIC, agar dilution (BSAC guidelines)
Procedure: as §1, §6, §7, §8, §2, §9, §10, §3, §4, §5

[16] = replicate 1, read-out: Minimum inhibitory concentration (MIC)
[17] = replicate 2, read-out: Minimum inhibitory concentration (MIC)
[18] = replicate 3, read-out: Minimum inhibitory concentration (MIC)

Clc1ccc(COC(Cn2ccnc2)c2ccc(Cl)cc2Cl)cc1 (centres unmarked) [Econazole]
activity against Gram-negative organisms (Gram-negative organisms): no significant activity
activity against strains of Staphylococci and Enterococci with reduced susceptibility to vancomycin [1]: good activity; also recorded: capable of inhibiting the growth
MIC ([2]; NCTC10662, P. aeruginosa NCTC 10662, replicate 1, read-out: Minimum inhibitory concentration (MIC)): > 10 µg/mL
MIC ([2]; NCTC10662, P. aeruginosa NCTC 10662, replicate 2, read-out: Minimum inhibitory concentration (MIC)): > 6 µg/mL
MIC ([2]; NCTC10662, P. aeruginosa NCTC 10662, replicate 3, read-out: Minimum inhibitory concentration (MIC)): > 6 µg/mL
MIC ([3]; E. faecium (VRE) NCTC 7171, replicate 1, read-out: Minimum inhibitory concentration (MIC)): 4 µg/mL (≈ 10.5 µM)
MIC ([3]; E. faecium (VRE) NCTC 7171, replicate 2, read-out: Minimum inhibitory concentration (MIC)): > 6 µg/mL
MIC ([3]; E. faecium (VRE) NCTC 7171, replicate 3, read-out: Minimum inhibitory concentration (MIC)): > 6 µg/mL
MIC [4, 16]: 1.5 µg/mL (≈ 3.93 µM)
MIC [4, 17]: 2 µg/mL (≈ 5.24 µM)
MIC [4, 18]: 2.5 µg/mL (≈ 6.55 µM)
MIC [5, 16]: 2 µg/mL (≈ 5.24 µM)
MIC [5, 17]: 4.5 µg/mL (≈ 11.8 µM)
MIC [5, 18]: 4 µg/mL (≈ 10.5 µM)
MIC ([6]; ATCC19606, Acinetobacter Baumannii ATCC 19606, replicate 1, read-out: Minimum inhibitory concentration (MIC)): > 10 µg/mL
MIC ([6]; ATCC19606, Acinetobacter Baumannii ATCC 19606, replicate 2, read-out: Minimum inhibitory concentration (MIC)): > 6 µg/mL
MIC ([6]; ATCC19606, Acinetobacter Baumannii ATCC 19606, replicate 3, read-out: Minimum inhibitory concentration (MIC)): > 6 µg/mL
MIC [7, 16]: 3.5 µg/mL (≈ 9.17 µM)
MIC [7, 17]: 5 µg/mL (≈ 13.1 µM)
MIC [7, 18]: 2.5 µg/mL (≈ 6.55 µM)
MIC [8, 16]: 7 µg/mL (≈ 18.3 µM)
MIC [8, 17]: > 6 µg/mL
MIC [8, 18]: > 6 µg/mL
MIC [9, 16]: 1.5 µg/mL (≈ 3.93 µM)
MIC [9, 17]: 2 µg/mL (≈ 5.24 µM)
MIC [9, 18]: 2 µg/mL (≈ 5.24 µM)
MIC ([10]; E. gallinarum (VRE) E1 NCTC 12359 VanC1, replicate 1, read-out: Minimum inhibitory concentration (MIC)): 3 µg/mL (≈ 7.86 µM)
MIC ([10]; E. gallinarum (VRE) E1 NCTC 12359 VanC1, replicate 2, read-out: Minimum inhibitory concentration (MIC)): 5.5 µg/mL (≈ 14.4 µM)
MIC ([10]; E. gallinarum (VRE) E1 NCTC 12359 VanC1, replicate 3, read-out: Minimum inhibitory concentration (MIC)): 3 µg/mL (≈ 7.86 µM)
MIC ([11]; NCTC10418, E. coli NCTC 10418, replicate 1, read-out: Minimum inhibitory concentration (MIC)): > 10 µg/mL
MIC ([11]; NCTC10418, E. coli NCTC 10418, replicate 2, read-out: Minimum inhibitory concentration (MIC)): > 6 µg/mL
MIC ([11]; NCTC10418, E. coli NCTC 10418, replicate 3, read-out: Minimum inhibitory concentration (MIC)): > 6 µg/mL
MIC ([12]; ESBL700603, K. pneumoniae ESBL 700603, replicate 1, read-out: Minimum inhibitory concentration (MIC)): > 10 µg/mL
MIC ([12]; ESBL700603, K. pneumoniae ESBL 700603, replicate 2, read-out: Minimum inhibitory concentration (MIC)): > 6 µg/mL
MIC ([12]; ESBL700603, K. pneumoniae ESBL 700603, replicate 3, read-out: Minimum inhibitory concentration (MIC)): > 6 µg/mL
MIC ([13]; ATCC1228, S. epidermidis ATCC 1228, replicate 1, read-out: Minimum inhibitory concentration (MIC)): 4 µg/mL (≈ 10.5 µM)
MIC ([13]; ATCC1228, S. epidermidis ATCC 1228, replicate 2, read-out: Minimum inhibitory concentration (MIC)): 2 µg/mL (≈ 5.24 µM)
MIC ([13]; ATCC1228, S. epidermidis ATCC 1228, replicate 3, read-out: Minimum inhibitory concentration (MIC)): 2.5 µg/mL (≈ 6.55 µM)
MIC [14, 16]: 2 µg/mL (≈ 5.24 µM)
MIC [14, 17]: 4.5 µg/mL (≈ 11.8 µM)
MIC [14, 18]: 2 µg/mL (≈ 5.24 µM)
MIC ([15]; E. faecium (VRE) E15 VanA ATCC 4147, replicate 1, read-out: Minimum inhibitory concentration (MIC)): 3 µg/mL (≈ 7.86 µM)
MIC ([15]; E. faecium (VRE) E15 VanA ATCC 4147, replicate 2, read-out: Minimum inhibitory concentration (MIC)): 4.5 µg/mL (≈ 11.8 µM)
MIC ([15]; E. faecium (VRE) E15 VanA ATCC 4147, replicate 3, read-out: Minimum inhibitory concentration (MIC)): 3 µg/mL (≈ 7.86 µM)
